Assays:
Type in all cases: functional, Homo sapiens
[1] = system: MCF7; assay: Antiproliferative activity on MCF-7 Cell Growth was determined by measuring [3H]thymidine incorporation at the concentration of 1 uM
[2] = system: MCF7; assay: Antiproliferative activity on MCF-7 Cell Growth was determined by measuring [3H]thymidine incorporation at the concentration of 0.1 nM
[3] = system: MCF7; assay: Antiproliferative activity on MCF-7 Cell Growth was determined by measuring [3H]thymidine incorporation at the concentration of 10 nM

SMILES | Control [1] | Control [2] | Control [3]
COc1cc(C)c(/C=C/C(C)=C/C=C/C(C)=C/C(=O)NC2OC(CO)C(O)C(O)C2O)c(C)c1C (centres undefined) | >100% | >50% | >100%
COc1cc(C)c(/C=C/C(C)=C/C=C/C(C)=C/C(=O)NC2OC(C(=O)O)C(O)C(O)C2O)c(C)c1C (centres undefined) | <50% | <50% | >50%
COc1cc(C)c(/C=C/C(C)=C/C=C/C(C)=C/C(=O)O)c(C)c1C [ACITRETIN] | <50% | >50% | >50%

— ChEMBL document CHEMBL1129809, “N-linked glycoside/glucuronide conjugates of retinoids: acitretin” (1997)
